Assays:
[1] = system: statin-treated patients with fasting TG ≥200 and <500 mg/dL and baseline hsCRP ≥2.0 mg/L; assay: ANCHOR post-hoc subgroup: lipid parameters, lipoproteins, markers of oxidation and inflammation; type: in vivo, human; details: for reduction of TG compared with placebo: printed as a reduction
Experimental: A multi-center, placebo-controlled, randomized, double-blind, 12-week study is performed to evaluate the efficacy and safety of >96% E-EPA in patients with fasting triglyceride levels ≥200 mg/dl and <500 mg/dl despite statin therapy (the mean of two qualifying entry values needs to be ≥185 mg/dl and at least one of the values needs to be ≥200 mg/dl). The primary objective of the study is to determine the efficacy of >96% E-EPA 2 g daily and 4 g daily, compared to placebo, in lowering fasting TG levels in patients with high risk for cardiovascular disease and with fasting TG levels ≥200 mg/dL and <500 mg/dL, despite treatment to LDL-C goal on statin therapy.
The population for this study is men and women >18 years of age with a body mass index ≤45 kg/m^2 with fasting TG levels greater than or equal to 200 mg/dl and less than 500 mg/dl and on a stable does of statin therapy (with or without ezetimibe). The statin must be atorvastatin, rosuvastatin or simvastatin. The dose of statin must be stable for ≥4 weeks prior to the LDL-C/TG baseline qualifying measurement for randomization. The statin dose will be optimal such that the patients are at their LDL-C goal at the LDL-C/TG baseline qualifying measurements. The same statin at the same dose will be continued until the study ends.
At the end of the 4-week diet and lifestyle stabilization period or the 6-week diet and stabilization and washout period, eligible patients will enter the 2-week LDL-C and TG qualifying period and will have their fasting LDL-C and TG levels measured at Visit 2 (Week-2) and Visit 3 (Week-1). Eligible patients must have an average fasting LDL-C level ≥40 mg/dL and <100 mg/dL and an average fasting TG level ≥200 mg/dL and <500 mg/dL to enter the 12-week double-blind treatment period. The LDL-C and TG levels for qualification will be based on the average (arithmetic mean) of the Visit 2 (Week-2) and Visit 3 (Week-1) values. If a patient's average LDL-C and/or TG levels from Visit 2 and Visit 3 fall outside the required range for entry into the study, an additional fasting lipid profile can be collected 1 week later at Visit 3.1. If a third sample is collected at Visit 3.1, entry into the study will be based on the average (arithmetic mean) of the values from Visit 3 and Visit 3.1.
After confirmation of qualifying fasting LDL-C and TG values, eligible patients will enter a 12-week, randomized, double-blind treatment period. At Visit 4 (Week 0), patients will be randomly assigned to 1 of the following treatment groups: • >96% E-EPA 2 g daily, • >96% E-EPA 4 g daily, or • Placebo.
>96% E-EPA is provided in 1 g liquid-filled, oblong, gelatin capsules. The matching placebo capsule is filled with light liquid paraffin and contains 0 g of >96% E-EPA. >96% E-EPA capsules are to be taken with food (i.e. with or at the end of a meal).
During the double-blind treatment period, patients will take 2 capsules (>96% E-EPA or matching placebo) in the morning and 2 capsules in the evening for a total of 4 capsules per day. • Patients in the >96% E-EPA 2 g/day treatment group will receive 1>96% E-EPA 1 g capsule and 1 matching placebo capsule in the morning and in the evening. • Patients in the >96% E-EPA 4 g/day treatment group will receive 2>96% E-EPA 1 g capsules in the morning and evening.
For TG, TC, HDL-C, LDL-C, calculated non-HDL-C, and VLDL-C, baseline will be defined as the average of Visit 4 (Week 0) and the preceding lipid qualifying visit (either Visit 3 [Week-1] or if it occurs, Visit 3.1) measurements. Baseline for all other efficacy parameters will be the Visit 4 (Week 0) measurement.
For TG, TC, HDL-C, LDL-C, calculated non-HDL-C, and VLDL-C, Week 12 endpoint will be defined as the average of Visit 6 (Week 11) and Visit 7 (Week 12) measurements.
Week 12 endpoint for all other efficacy parameters will be the Visit 7 (Week 12) measurement. […]

[2] = system: patients with baseline hsCRP ≥2.0 mg/L (safety population); assay: ANCHOR post-hoc subgroup: treatment-emergent adverse events; type: in vivo, human
Description: The evaluation of safety included monitoring of treatment-emergent adverse events (TEAEs), defined as any AEs that began after the first dose of study medication or that worsened in severity during the double-blind treatment period. TEAEs reported herein included total TEAEs and those occurring in 3% […] of patients in any treatment group of the overall ANCHOR study population (i.e., nausea, diarrhea, nasopharyngitis, and arthralgia). The median difference in percent change from baseline between 4 g per day EPA-E and placebo groups for the primary efficacy variable and additional assessments were estimated with the Hodges-Lehmann method (P values from the Wilcoxon rank-sum test for treatment comparisons) where departures from normality were observed; for normally distributed parameters, an ANCOVA model was used with least square means (LS) and standard error (SE). Missing values were imputed using the last-observation-carried-forward method. For all post hoc analyses, the alpha level for statistical significance was 0.05. Safety analyses were based on the safety population (all randomized patients who received at least one dose of the study drug).

[3] = 4 g/day vs placebo, baseline to week 12, Hodges-Lehmann median
[4] = 4 g/day vs placebo, baseline to week 12, Hodges-Lehmann median, listed as EPA-E
[5] = 4 g/day, baseline to week 12, median

CC/C=C\C/C=C\C/C=C\C/C=C\C/C=C\CCCC(=O)OCC [Icosapent Ethyl, ethyl eicosapentaenoate]
Apo B Median Difference in % Change From Baseline vs Placebo [1, 3]: −7.4% | Apo C-III Median Difference in % Change From Baseline vs Placebo [1, 3]: −16.0% | HDL-C Median Difference in % Change From Baseline vs Placebo [1, 3]: −5.2% | ICAM-1 Median Difference in % Change From Baseline vs Placebo [1, 3]: +1.1% | IL-6 Median Difference in % Change From Baseline vs Placebo [1, 3]: −4.2% | LDL-C Median Difference in % Change From Baseline vs Placebo [1, 3]: −5.0% | Lp-PLA2 Median Difference in % Change From Baseline vs Placebo [1, 3]: −19.6% | RLP-C Median Difference in % Change From Baseline vs Placebo [1, 3]: −23.0% | TC Median Difference in % Change From Baseline vs Placebo [1, 3]: −11.1% | TG Median Difference in % Change From Baseline vs Placebo [1, 3]: −19.9% | VLDL-C Median Difference in % Change From Baseline vs Placebo [1, 3]: −21.0% | VLDL-TG Median Difference in % Change From Baseline vs Placebo [1, 3]: −22.9% | Apo C-III Median Difference in % Change From Baseline vs Placebo [1, 4]: −16% | TG Median Difference in % Change From Baseline vs Placebo [1, 4]: −20% | hsCRP Median Difference in % Change From Baseline vs Placebo [1, 4]: −17.9% | Apo B Change From Baseline, % [1, 5]: −0.5% | Apo C-III Change From Baseline, % [1, 5]: −7.7% | HDL-C Change From Baseline, % [1, 5]: −2.1% | ICAM-1 Change From Baseline, % [1, 5]: +3.3% | IL-6 Change From Baseline, % [1, 5]: −1.6% | LDL-C Change From Baseline, % [1, 5]: +2.8% | Lp-PLA2 Change From Baseline, % [1, 5]: −13.3% | Non-HDL-C Change From Baseline, % [1, 5]: −4.5% | Ox-LDL Change From Baseline, % [1, 5]: −2.9% | RLP-C Change From Baseline, % [1, 5]: −26.3% | TC Change From Baseline, % [1, 5]: −2.6% | VLDL-C Change From Baseline, % [1, 5]: −11.8% | hsCRP Change From Baseline, % [1, 5]: −10.5% | reduction of TG compared with placebo [1, 5]: 19.9% | reduction of TG compared with placebo ([1]; 4 g/day, baseline to week 12, median, listed as EPA-E): about 19.9% | Apo B End of Treatment ([1]; 4 g/day, week 12, median): 93.5 mg/dL | Apo C-III End of Treatment ([1]; 4 g/day, week 12, median): 14.0 mg/dL | Apo C-III End of Treatment (Table 3) ([1]; 4 g/day, week 12, median): 14 mg/dL | HDL-C End of Treatment ([1]; 4 g/day, week 12, median): 36.0 mg/dL | ICAM-1 End of Treatment ([1]; 4 g/day, week 12, median): 300.5 ng/mL | IL-6 End of Treatment ([1]; 4 g/day, week 12, median): 2.8 pg/mL | LDL-C End of Treatment ([1]; 4 g/day, week 12, median): 83.5 mg/dL | Lp-PLA2 End of Treatment ([1]; 4 g/day, week 12, median): 163.0 ng/mL | Non-HDL-C End of Treatment ([1]; 4 g/day, week 12, median): 125.0 mg/dL | Ox-LDL End of Treatment ([1]; 4 g/day, week 12, median): 54.1 U/L | TC End of Treatment ([1]; 4 g/day, week 12, median): 166.0 mg/dL | VLDL-C End of Treatment ([1]; 4 g/day, week 12, median): 38.0 mg/dL | VLDL-TG End of Treatment ([1]; 4 g/day, week 12, median): 154.5 mg/dL | hsCRP End of Treatment ([1]; 4 g/day, week 12, median): 3.7 mg/L | TG End of Treatment ([1]; 4 g/day, week 12, median, fasting): 220.8 mg/dL | patients with arthralgia ([2]; 4 g per day): 2.3% | patients with diarrhea ([2]; 4 g per day): 3.8% | patients with nasopharyngitis ([2]; 4 g per day): 0.8% | patients with nausea ([2]; 4 g per day): 2.3% | patients with TEAEs (irrespective of causality) ([2]; 4 g per day, 60 of 131): 45.8% | patients discontinued due to an AE ([2]; 4 g per day, subarachnoid hemorrhage, ruptured cerebral aneurysm, brain edema, not considered related): One | Patients With TEAEs: Any TEAE ([2]; 4 g/day, n = 131): 60 (45.8) n (%) | Patients With TEAEs: Arthralgia ([2]; 4 g/day, n = 131): 3 (2.3) n (%) | Patients With TEAEs: Diarrhea ([2]; 4 g/day, n = 131): 5 (3.8) n (%) | Patients With TEAEs: Nasopharyngitis ([2]; 4 g/day, n = 131): 1 (0.8) n (%) | Patients With TEAEs: Nausea ([2]; 4 g/day, n = 131): 3 (2.3) n (%)
